The values that follow come from patent US20040137582A1, “Methods for manufacturing polysaccharide derivatives” (priority 2002, published 2004).

For data set [1], the system named is human skin fibroblasts. The data set can be described thus: Extraction assay, mitochondrial metabolic activity (MTT). The note with it: 24 h.
Protocol: Cell culture. Primary human skin fibroblasts were grown in DMEM complete medium, at 37° C. in a fully humidified air containing 5% CO2 (IR auto Flow). The cells were fed every 2 to 3 days. When cells reached confluence, the culture medium was discarded and the cells washed with 5 mL of 10 mM phosphate buffered saline (PBS) pH 7.4 (Gibco). The cells were then detached with 2 mL of 0.05% (w/v) trypsin (1:250, from porcine pancreas (Sigma)) solution (PBS supplemented with 0.1% and 0.25% of α-D(+) glucose and EDTA, respectively) for 5 min at 37° C., and 3 mL of DMEM complete medium was added to inactivate the trypsin after cell detachment. The cells were centrifuged (10 min, 2500 rpm) and resuspended in culture medium before use. Cultures between the 3rd and 7th passages were used in the entire work.
All solutions were prepared on the day of application.
Extraction assay. The extraction assay was performed in two sets of hydrogels. […] In the second set the hydrogels obtained after the polymerization reaction were immersed in 10 mL of 10 mM citrate-phosphate pH 7.0 and immediately autoclaved. Extracts were obtained by immersing autoclaved hydrogels in DMEM (without phenol red) culture medium supplemented with 1% of fungizone and 0.5% of gentamicin, at 37° C., for 5 days with agitation (120 rpm). The ratio between the surface area of the material and the volume of extraction medium was 3 cm^2/mL. Following incubation the medium containing the extract was collected, filtered (0.22 μm; to eliminate the possible presence of solid particles of the material) and supplemented with 10% of serum. Human skin fibroblasts were plated in 96-well plates (TPP, Switzerland) and grown to subconfluency. The culture medium was removed and replaced with the extract media for 24 h at 37° C. Phenol (64 g/L, BDH) which is considered cytotoxic^17, was used as a positive control. Culture medium without extracts, incubated as described above, was used as a negative control. Following incubation the extracts were discarded and the mitochondrial metabolic activity of the cells was measured with the MTT assay.
Mitochondrial metabolic activity assay. For 96-well plates, the cell layers were rinsed with PBS (110 μL) and 110 μL of MTT (0.45 mg/mL in DMEM complete medium w/o phenol red) was added to each well. For 6-well plates, after PBS washing (1 mL), 2.5 mL of MTT solution was added. After 3 h incubation at 37° C., the MTT solution was removed and the insoluble formazan crystals formed in the bottom of the wells were dissolved in 100 μL or 1 mL of DMSO, for 96 and 6-well plates respectively. The absorbance was measured at 540 nm using a plate reader (STL Spectra III, Austria).
In data set [2] the test system is human skin fibroblasts. The data set can be described thus: Cell proliferation inhibition index (CPII) assay: direct contact assay. Conditions: 72 h.
Protocol: Cell proliferation inhibition index (CPII) assay: direct contact assay. […] Since each well has a surface area of 0.31 cm^2, the final seeding density was ca. 5×10^3 cells/cm^2. After 4 h (the cells were adherent to the well bottom), the culture medium was discarded and 200 μL of each test solution was added to each well. For the control culture, the medium was refreshed. Seventy-two hours after the addition of test solutions, the extracts were discarded and the cell layer was washed with PBS to remove remaining materials and loose cells. The metabolic activity of the cells was then measured with the MTT test (see below). The CPII was calculated using eq. 6: [formula]
To evaluate the CPII for dexT70-VA hydrogels (extracted for 3 days in water at 25° C. and then sterilized by autoclave), 3 mL of a fibroblast suspension containing 1.5×10^4 cells/mL was plated into each well of a 6-well plate, to yield a final density of 5×10^3 cells/cm^2. After 4 h, the culture medium was refreshed (3 mL) and the hydrogels were added to the wells, in direct contact with cells (FIG. 1A). For the control culture, the culture medium was refreshed. After 72 h of incubation, the metabolic activity of the cells was assessed as previously described and the CPII calculated according to eq.6.
Mitochondrial metabolic activity assay. […] The absorbance was measured at 540 nm using a plate reader (STL Spectra III, Austria).

On to `N.N.O=S(=O)(O)OOS(=O)(=O)O` [APS, ammonium persulfate], for which the “effect on MMAF” value with human skin fibroblasts [1] (concentrations above 2.5 μL/mL) is listed as “significant (P<0.001) decrease in MMAF”. In addition, the CPII result in the data set with human skin fibroblasts [2] (all concentrations) was “ca. 90%”.

Consider Dextran [reference compound], for which, in the data set on human skin fibroblasts [1] (solution 10 mg/mL), the “increase in the MMAF” value is listed as “ca. 20%”. Besides, in the data set with human skin fibroblasts [1] (solution 20-100 mg/mL), the “effect on MMAF” value is given as “not significant”.

Turning to `CN(C)CCN(C)C` [TEMED, N,N,N′,N′-tetramethylenediamine], the “effect on MMAF” value in the data set with human skin fibroblasts [1] (concentrations above 2.5 μL/mL) was “significant (P<0.001) decrease in MMAF”. Also, the CPII entry in the data set with human skin fibroblasts [2] (above 2.5 μL/mL) is listed as “the same phenomenon was observed”.
